This test concerns the target PI3Kβ (Homo sapiens (Human), UniProt P42338). Put plainly: PI3K isoform TR-FRET enzymatic assay (PI3Kβ). The settings on record: 2× Km ATP, 30 minutes at 25° C. Format: biochemical. The method, then: The compounds of formula (I) were characterized for their enzymatic activity against the PI3K isoforms. The activities were measured using a time-resolved fluorescence resonance energy transfer (TR-FRET) assay. TR-FRET monitored the formation of 3,4,5-inositol triphosphate molecule that competed with fluorescently labeled PIP3 for binding to the GRP-1 pleckstrin homology domain protein.
Class I PI3K isoforms were expressed and purified as heterodimeric recombinant proteins. All assay reagents and buffers for the TR-FRET assay were purchased from Millipore. […] The compounds were added to the assay solution and incubated for 30 minutes at 25° C. The reactions were terminated with a final concentration of 10 mM EDTA, 10 nM labeled-PIP3, and 35 nM Europium labeled GRP-1 detector protein before reading TR-FRET on an Envision plate reader (Ex: 340 nm; Em: 615/665 nm; 100 μs delay and 500 μs read window).
The results were normalized based on positive (1 μM wortmanin) and negative (DMSO) controls, and the IC50 values for PI3K α, β, δ, and γ were calculated from the fit of the dose-response curves to a four-parameter equation.
For orientation: TR-FRET usually uses a lanthanide donor and a delayed reading to cut background.

Sequence of PI3Kβ (P42338 whole entry, the tested form may be a part, canonical isoform): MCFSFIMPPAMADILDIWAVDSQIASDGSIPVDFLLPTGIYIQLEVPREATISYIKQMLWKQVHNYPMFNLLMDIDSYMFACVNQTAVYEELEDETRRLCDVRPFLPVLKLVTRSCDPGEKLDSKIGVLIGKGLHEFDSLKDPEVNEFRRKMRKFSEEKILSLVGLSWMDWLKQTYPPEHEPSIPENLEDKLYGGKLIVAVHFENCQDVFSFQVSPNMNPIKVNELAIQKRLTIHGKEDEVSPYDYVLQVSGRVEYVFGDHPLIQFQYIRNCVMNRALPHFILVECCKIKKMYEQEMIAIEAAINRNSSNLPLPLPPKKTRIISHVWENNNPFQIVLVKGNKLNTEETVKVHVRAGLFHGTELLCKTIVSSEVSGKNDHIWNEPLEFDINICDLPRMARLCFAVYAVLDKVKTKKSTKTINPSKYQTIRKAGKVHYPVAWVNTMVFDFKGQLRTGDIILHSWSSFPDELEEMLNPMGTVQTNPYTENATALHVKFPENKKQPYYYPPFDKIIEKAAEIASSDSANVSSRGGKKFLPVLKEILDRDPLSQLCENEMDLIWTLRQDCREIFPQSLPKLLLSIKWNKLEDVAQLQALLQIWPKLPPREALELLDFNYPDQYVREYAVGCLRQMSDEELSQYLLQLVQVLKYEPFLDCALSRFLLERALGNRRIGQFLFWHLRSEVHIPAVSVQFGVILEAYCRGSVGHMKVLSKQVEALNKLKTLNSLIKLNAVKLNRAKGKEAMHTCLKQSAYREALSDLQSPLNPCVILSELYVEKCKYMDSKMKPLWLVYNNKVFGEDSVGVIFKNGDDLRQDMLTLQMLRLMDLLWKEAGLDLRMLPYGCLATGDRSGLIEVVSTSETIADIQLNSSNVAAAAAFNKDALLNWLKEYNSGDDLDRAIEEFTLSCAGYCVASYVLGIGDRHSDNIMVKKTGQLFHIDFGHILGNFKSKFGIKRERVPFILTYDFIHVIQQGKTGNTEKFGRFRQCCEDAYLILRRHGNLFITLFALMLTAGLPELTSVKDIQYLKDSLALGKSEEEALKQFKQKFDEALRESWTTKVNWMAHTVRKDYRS
Sequence of PI3Kβ (P27986 whole entry partner, the tested form may be a part, canonical isoform): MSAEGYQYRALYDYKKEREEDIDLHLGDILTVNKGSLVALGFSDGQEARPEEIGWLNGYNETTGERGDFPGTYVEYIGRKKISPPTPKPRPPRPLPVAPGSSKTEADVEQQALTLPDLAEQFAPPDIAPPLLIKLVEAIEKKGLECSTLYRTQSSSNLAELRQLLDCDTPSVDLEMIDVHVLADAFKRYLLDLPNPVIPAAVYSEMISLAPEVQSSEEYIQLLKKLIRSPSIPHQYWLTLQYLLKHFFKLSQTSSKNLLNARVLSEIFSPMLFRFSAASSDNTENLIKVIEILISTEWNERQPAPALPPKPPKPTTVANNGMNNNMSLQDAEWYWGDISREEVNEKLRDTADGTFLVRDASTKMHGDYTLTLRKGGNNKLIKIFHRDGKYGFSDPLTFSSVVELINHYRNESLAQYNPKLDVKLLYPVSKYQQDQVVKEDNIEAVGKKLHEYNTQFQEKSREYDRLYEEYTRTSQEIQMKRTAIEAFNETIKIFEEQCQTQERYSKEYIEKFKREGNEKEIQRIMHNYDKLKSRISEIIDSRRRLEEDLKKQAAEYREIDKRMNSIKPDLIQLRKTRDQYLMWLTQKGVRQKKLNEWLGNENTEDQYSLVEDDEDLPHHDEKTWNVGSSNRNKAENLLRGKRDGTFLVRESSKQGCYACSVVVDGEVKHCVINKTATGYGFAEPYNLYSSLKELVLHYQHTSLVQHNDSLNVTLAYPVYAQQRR

Take `Cc1nnc(-c2cc(N3CCOCC3)cc3c2nc(C)n3-c2ccnc3ccccc23)[nH]1` [Example 19, 4-(2-methyl-4-(5-methyl-4H-1,2,4-triazol-3-yl)-1-(quinolin-4-yl)-1H-benzo[d]imidazol-6-yl)morpholine]: half-maximal inhibition (IC50) required 110 nM.

Regarding `Cc1nc2c(-c3ccnnc3)cc(N3CCOCC3)cc2n1-c1ccnc2c(Cl)cccc12` [Example 314, 4-(1-(8-chloroquinolin-4-yl)-2-methyl-4-(pyridazin-4-yl)-1H-benzo[d]imidazol-6-yl)morpholine], the IC50 (as a rule, the concentration that gives 50% inhibition) worked out at 7800 nM. This IC50 lies about 71-fold higher than the previous one.

Turning to `Cc1nc2c(-c3nnc[nH]3)cc(N3CCOCC3)c(F)c2n1-c1ccnc2c(Cl)cccc12` [Example 91, 4-[3-(8-chloroquinolin-4-yl)-4-fluoro-2-methyl-7-(4H-1,2,4-triazol-3-yl)benzimidazol-5-yl]morpholine], half-maximal inhibition (IC50) was put at 19 nM.

`Cc1csc(-c2cc(N3CCOCC3)cc3c2nc(C)n3-c2ccnc3c(Cl)cccc23)n1` [Example 205, 4-[3-(8-chloroquinolin-4-yl)-2-methyl-7-(4-methyl-1,3-thiazol-2-yl)benzimidazol-5-yl]morpholine] returned an IC50 of 12 nM. This IC50 is about 1.6-fold lower than that of the compound before.

On to `CCc1nc2c(-c3nnc[nH]3)cc(N3CCOCC3)cc2n1-c1c(Cl)cnc2c(Cl)cccc12` [Example 98, 4-[3-(3,8-dichloroquinolin-4-yl)-2-ethyl-7-(4H-1,2,4-triazol-3-yl)benzimidazol-5-yl]morpholine], for which half-maximal inhibition (IC50) required 13 nM.

Compound `Cc1nc2c(-c3nnc(Cl)[nH]3)cc(N3CCOCC3)cc2n1-c1ccnc2c(Cl)cccc12` (atropisomer, axis not shown) [Compound 358, 4-[3-(8-chloroquinolin-4-yl)-7-(5-chloro-4H-1,2,4-triazol-3-yl)-2-methylbenzimidazol-5-yl]morpholine] showed an IC50 of 10 nM. The IC50 values of the last two compounds are within 1.5-fold of each other.

Compound `Cc1csc(-c2cc(N3CCOCC3)cc3c2nc(C)n3-c2ccnc3c(F)ccc(F)c23)n1` [Example 233, 4-[3-(5,8-difluoroquinolin-4-yl)-2-methyl-7-(4-methyl-1,3-thiazol-2-yl)benzimidazol-5-yl]morpholine] yielded an IC50 of 8 nM.

Consider `CCc1nc2c(-c3cnc(Cl)[nH]3)cc(N3CCOCC3)cc2n1-c1ccnc2c(F)ccc(F)c12` [Example 280, 4-[7-(2-chloro-1H-imidazol-5-yl)-3-(5,8-difluoroquinolin-4-yl)-2-ethylbenzimidazol-5-yl]morpholine], for which the 50% inhibitory concentration (IC50) was determined as 13 nM.

Compound `COCCc1nc2c(-c3nnc[nH]3)cc(N3CCOCC3)cc2n1-c1ccnc2c(Cl)cccc12` [Example 116, 4-[3-(8-chloroquinolin-4-yl)-2-(2-methoxyethyl)-7-(4H-1,2,4-triazol-3-yl)benzimidazol-5-yl]morpholine] came in with an IC50 of 21 nM.

In the case of `Cc1nc2c(-c3nnc[nH]3)cc(N3CCOCC3)cc2n1-c1ccnc2c(Cl)c(F)ccc12` [Example 39, 4-(1-(8-chloro-7-fluoroquinolin-4-yl)-2-methyl-4-(4H-1,2,4-triazol-3-yl)-1H-benzo[d]imidazol-6-yl)morpholine], 11 nM corresponded to half-maximal inhibition (IC50).

`Cc1nc2c(-c3cnco3)cc(N3CCOCC3)cc2n1-c1ccnc2c(Cl)cccc12` [Example 277, 4-[3-(8-chloroquinolin-4-yl)-2-methyl-7-(1,3-oxazol-5-yl)benzimidazol-5-yl]morpholine]: the IC50 came out at 620 nM.

In turn, `CC(C)Cc1nc2c(-c3cnc(Cl)[nH]3)cc(N3CCOCC3)cc2n1-c1ccnc2c(F)ccc(F)c12` [Example 300, 4-[7-(2-chloro-1H-imidazol-5-yl)-3-(5,8-difluoroquinolin-4-yl)-2-(2-methylpropyl)benzimidazol-5-yl]morpholine] had a half-maximal inhibitory concentration (IC50) of 14 nM.

Compound `Cc1nc2c(-c3cnc(Cl)[nH]3)cc(N3CCOCC3)cc2n1-c1ccnc2cc(F)ccc12` [Example 293, 4-[7-(2-chloro-1H-imidazol-5-yl)-3-(7-fluoroquinolin-4-yl)-2-methylbenzimidazol-5-yl]morpholine] yielded a concentration for half-maximal inhibition (IC50) of 38 nM.

As to `Cc1nc2c(-c3cccnc3)cc(N3CCOCC3)cc2n1-c1ccnc2c(Cl)cccc12` [Example 317, 4-[3-(8-chloroquinolin-4-yl)-2-methyl-7-pyridin-3-ylbenzimidazol-5-yl]morpholine], the IC50 was determined as 690 nM.

Regarding `Cc1nc2c(-c3cnc(Cl)[nH]3)cc(N3CCOCC3)cc2n1-c1ccnc2ccccc12` [Example 306, 4-[7-(2-chloro-1H-imidazol-5-yl)-2-methyl-3-quinolin-4-ylbenzimidazol-5-yl]morpholine], the 50% inhibitory concentration (IC50) stood at 370 nM.

The compound `Cc1cc(-n2c(C)nc3c(-c4nnc[nH]4)cc(N4CCOCC4)cc32)c2cccc(C(F)(F)F)c2n1` [Example 60, 4-[2-methyl-3-[2-methyl-8-(trifluoromethyl)quinolin-4-yl]-7-(4H-1,2,4-triazol-3-yl)benzimidazol-5-yl]morpholine] came in with an IC50 of 30 nM.

In turn, `Fc1ccc(F)c2c(-n3c(CC4CC4)nc4c(-c5cnc(Cl)[nH]5)cc(N5CCOCC5)cc43)ccnc12` [Example 302, 4-[7-(2-chloro-1H-imidazol-5-yl)-2-(cyclopropylmethyl)-3-(5,8-difluoroquinolin-4-yl)benzimidazol-5-yl]morpholine] showed a half-inhibitory concentration (IC50) of 24 nM.

Take `CCCc1nc2c(-c3nnc[nH]3)cc(N3CCOCC3)cc2n1-c1ccnc2cc(F)ccc12` [Example 7, 4-(1-(7-fluoroquinolin-4-yl)-2-propyl-4-(4H-1,2,4-triazol-3-yl)-1H-benzo[d]imidazol-6-yl)morpholine]: the IC50 stood at 31 nM.

On to `CCCc1nc2c(-c3nnc(C)[nH]3)cc(N3CCOCC3)cc2n1-c1ccnc2c(Cl)cccc12` [Example 46, 4-(1-(8-chloroquinolin-4-yl)-4-(5-methyl-4H-1,2,4-triazol-3-yl)-2-propyl-1H-benzo[d]imidazol-6-yl)morpholine], for which it took 19 nM to reach half-maximal inhibition (IC50).

On to `Cc1nnc(-c2cc(N3CCOCC3)cc3c2nc(CC2CC2)n3-c2ccnc3c(Cl)cccc23)[nH]1` [Example 8, 4-(1-(8-chloroquinolin-4-yl)-2-(cyclopropylmethyl)-4-(5-methyl-4H-1,2,4-triazol-3-yl)-1H-benzo[d]imidazol-6-yl)morpholine], for which the half-inhibitory concentration (IC50) is 32 nM.

The compound `CCc1nnc(-c2cc(N3CCOCC3)cc3c2nc(C)n3-c2ccnc3c(Cl)cccc23)[nH]1` [Example 137, 4-[3-(8-chloroquinolin-4-yl)-7-(5-ethyl-4H-1,2,4-triazol-3-yl)-2-methylbenzimidazol-5-yl]morpholine] gave a 50% inhibitory concentration (IC50) of 17 nM.

For `Clc1cccc2c(-n3c(-c4cnsc4)nc4c(-c5nnc[nH]5)cc(N5CCOCC5)cc43)ccnc12` [Example 118, 4-[3-(8-chloroquinolin-4-yl)-2-(1,2-thiazol-4-yl)-7-(4H-1,2,4-triazol-3-yl)benzimidazol-5-yl]morpholine], the IC50 came out at 52 nM.

For the compound `Cc1nc2c(-c3cnc[nH]3)cc(N3CCOCC3)cc2n1-c1ccnc2c(Cl)cccc12` [Example 266, 4-[3-(8-chloroquinolin-4-yl)-7-(1H-imidazol-5-yl)-2-methylbenzimidazol-5-yl]morpholine], the half-inhibitory concentration (IC50) stood at 11 nM.

Take `CCc1nc2c(-c3nnc(C)[nH]3)cc(N3CCOCC3)cc2n1-c1ccnc2c(Cl)cccc12` [Example 133, 4-[3-(8-chloroquinolin-4-yl)-2-ethyl-7-(5-methyl-4H-1,2,4-triazol-3-yl)benzimidazol-5-yl]morpholine]: it took 21 nM to reach half-maximal inhibition (IC50).
